Reference: ChEMBL document CHEMBL1141625, “Potent, selective MCH-1 receptor antagonists” (Bioorg Med Chem Lett, 2008)

Biological target: Sodium-dependent dopamine transporter (Homo sapiens) (UniProt Q01959)
Test: Inhibition of DAT at 10 uM
Conditions: not given

Sequence of Sodium-dependent dopamine transporter (Homo sapiens) (Q01959 whole entry): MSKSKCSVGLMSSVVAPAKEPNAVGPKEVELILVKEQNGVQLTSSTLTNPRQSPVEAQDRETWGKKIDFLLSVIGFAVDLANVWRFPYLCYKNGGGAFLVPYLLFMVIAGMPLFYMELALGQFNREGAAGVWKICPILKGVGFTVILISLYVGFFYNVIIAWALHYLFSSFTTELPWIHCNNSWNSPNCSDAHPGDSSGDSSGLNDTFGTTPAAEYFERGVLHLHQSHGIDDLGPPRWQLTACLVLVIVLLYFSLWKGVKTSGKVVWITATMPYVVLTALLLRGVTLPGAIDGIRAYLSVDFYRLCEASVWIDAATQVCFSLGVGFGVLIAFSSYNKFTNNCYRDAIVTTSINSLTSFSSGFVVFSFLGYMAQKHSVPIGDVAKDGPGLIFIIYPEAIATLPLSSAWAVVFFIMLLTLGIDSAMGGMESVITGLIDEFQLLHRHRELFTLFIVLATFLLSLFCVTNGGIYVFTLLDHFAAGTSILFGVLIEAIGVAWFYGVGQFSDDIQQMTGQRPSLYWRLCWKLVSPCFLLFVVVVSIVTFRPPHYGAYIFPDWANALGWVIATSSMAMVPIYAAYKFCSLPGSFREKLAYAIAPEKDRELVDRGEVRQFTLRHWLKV

In order of falling inhibition:
1. CO[C@@H]1CN(C[C@H]2Cc3ccc(Br)cc3C2)CC[C@H]1n1c(C)nc2cc(C)ccc21  80%
2. CO[C@H]1CN(CCCc2cccc(NC(=O)C3CC3)c2)CC[C@@H]1n1c(C)nc2cc(C)ccc21  32%
3. CO[C@@H]1CN(C[C@@H]2Cc3ccc(NC(=O)C(C)C)cc3C2)CC[C@H]1n1c(C)nc2cc(C)ccc21  10%
4. CO[C@@H]1CN(CC2Cc3ccccc3C2)CC[C@H]1n1c(C)nc2cc(C)ccc21  8%

Biological target: T1, Melanin-concentrating hormone receptor 1 (Homo sapiens, UniProt Q99705)
T1 sequence (Q99705 whole entry): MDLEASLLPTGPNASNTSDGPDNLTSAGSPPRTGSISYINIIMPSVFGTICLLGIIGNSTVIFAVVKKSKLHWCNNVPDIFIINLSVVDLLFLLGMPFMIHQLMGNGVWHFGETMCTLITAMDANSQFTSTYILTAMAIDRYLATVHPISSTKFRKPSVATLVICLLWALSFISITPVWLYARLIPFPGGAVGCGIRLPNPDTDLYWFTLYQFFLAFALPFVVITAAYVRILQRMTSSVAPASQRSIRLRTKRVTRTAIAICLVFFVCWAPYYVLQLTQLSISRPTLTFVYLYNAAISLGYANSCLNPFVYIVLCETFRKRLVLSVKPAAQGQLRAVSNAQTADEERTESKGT
Test: Binding affinity to MCHR1
Conditions: not given

In order of rising Ki:
1. CO[C@@H]1CN(C[C@H]2Cc3ccc(C#N)cc3C2)CC[C@H]1n1c(C(C)(C)O)nc2cc(C)c(F)cc21  0.5 nM
2. CO[C@@H]1CN(C[C@H]2Cc3ccc(Br)cc3C2)CC[C@H]1n1c(C)nc2cc(C)ccc21  5 nM
3. CO[C@H]1CN(CCCc2cccc(NC(=O)C3CC3)c2)CC[C@@H]1n1c(C)nc2cc(C)ccc21  5.2 nM
4. CO[C@@H]1CN(C[C@@H]2Cc3ccc(NC(=O)C(C)C)cc3C2)CC[C@H]1n1c(C)nc2cc(C)ccc21  31 nM
5. CO[C@@H]1CN(CC2Cc3ccccc3C2)CC[C@H]1n1c(C)nc2cc(C)ccc21  47 nM

Biological target: T1, Melanin-concentrating hormone receptor 1
Test: Antagonist activity at MCHR1 by cAMP assay
Type: functional
Conditions: not given

In order of falling EC50:
1. CO[C@@H]1CN(CC2Cc3ccccc3C2)CC[C@H]1n1c(C)nc2cc(C)ccc21  69 nM
2. CO[C@@H]1CN(C[C@@H]2Cc3ccc(NC(=O)C(C)C)cc3C2)CC[C@H]1n1c(C)nc2cc(C)ccc21  40 nM
3. CO[C@@H]1CN(C[C@H]2Cc3ccc(Br)cc3C2)CC[C@H]1n1c(C)nc2cc(C)ccc21  20 nM
4. CO[C@H]1CN(CCCc2cccc(NC(=O)C3CC3)c2)CC[C@@H]1n1c(C)nc2cc(C)ccc21  20 nM

In order of falling Efficacy:
1. CO[C@@H]1CN(C[C@H]2Cc3ccc(Br)cc3C2)CC[C@H]1n1c(C)nc2cc(C)ccc21  92%
2. CO[C@@H]1CN(CC2Cc3ccccc3C2)CC[C@H]1n1c(C)nc2cc(C)ccc21  90%
3. CO[C@H]1CN(CCCc2cccc(NC(=O)C3CC3)c2)CC[C@@H]1n1c(C)nc2cc(C)ccc21  82%
4. CO[C@@H]1CN(C[C@@H]2Cc3ccc(NC(=O)C(C)C)cc3C2)CC[C@H]1n1c(C)nc2cc(C)ccc21  74%

Biological target: D(3) dopamine receptor (Homo sapiens) (UniProt P35462)
Sequence (P35462 whole entry): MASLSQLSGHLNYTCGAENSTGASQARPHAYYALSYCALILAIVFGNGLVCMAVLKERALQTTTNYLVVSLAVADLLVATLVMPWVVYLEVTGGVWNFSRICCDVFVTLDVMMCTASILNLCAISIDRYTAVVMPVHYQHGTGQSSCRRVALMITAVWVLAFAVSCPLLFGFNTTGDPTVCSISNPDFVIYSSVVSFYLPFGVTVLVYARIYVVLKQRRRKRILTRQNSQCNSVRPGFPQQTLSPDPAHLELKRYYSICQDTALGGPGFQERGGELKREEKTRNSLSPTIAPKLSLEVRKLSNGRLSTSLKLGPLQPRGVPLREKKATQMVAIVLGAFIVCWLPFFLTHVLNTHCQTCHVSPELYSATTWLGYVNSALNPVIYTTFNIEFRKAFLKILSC
Test: Inhibition of dopamine D3 receptor at 10 uM
Conditions: not given

In order of falling inhibition:
1. CO[C@@H]1CN(C[C@H]2Cc3ccc(Br)cc3C2)CC[C@H]1n1c(C)nc2cc(C)ccc21  84%
2. CO[C@H]1CN(CCCc2cccc(NC(=O)C3CC3)c2)CC[C@@H]1n1c(C)nc2cc(C)ccc21  52%
3. CO[C@@H]1CN(CC2Cc3ccccc3C2)CC[C@H]1n1c(C)nc2cc(C)ccc21  40%

Biological target: T2, Alpha-2A adrenergic receptor (Homo sapiens) (UniProt P08913)
T2 sequence (whole entry): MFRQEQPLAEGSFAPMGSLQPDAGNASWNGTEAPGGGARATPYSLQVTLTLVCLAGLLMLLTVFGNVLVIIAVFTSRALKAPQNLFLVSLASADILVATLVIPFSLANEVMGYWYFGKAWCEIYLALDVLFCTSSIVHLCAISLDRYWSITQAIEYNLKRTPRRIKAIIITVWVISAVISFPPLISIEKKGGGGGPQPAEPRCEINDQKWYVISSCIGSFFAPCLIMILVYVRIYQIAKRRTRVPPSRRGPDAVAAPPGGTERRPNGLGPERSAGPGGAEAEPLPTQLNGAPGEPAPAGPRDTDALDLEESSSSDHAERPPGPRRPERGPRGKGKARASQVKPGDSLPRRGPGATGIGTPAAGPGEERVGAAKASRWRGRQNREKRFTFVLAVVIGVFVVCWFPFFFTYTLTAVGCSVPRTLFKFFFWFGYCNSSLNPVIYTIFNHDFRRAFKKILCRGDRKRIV
Test: Inhibition of adrenergic alpha2A receptor at 10 uM
Conditions: not given

In order of rising inhibition:
1. CO[C@@H]1CN(C[C@@H]2Cc3ccc(NC(=O)C(C)C)cc3C2)CC[C@H]1n1c(C)nc2cc(C)ccc21  7%
2. CO[C@H]1CN(CCCc2cccc(NC(=O)C3CC3)c2)CC[C@@H]1n1c(C)nc2cc(C)ccc21  15%
3. CO[C@@H]1CN(CC2Cc3ccccc3C2)CC[C@H]1n1c(C)nc2cc(C)ccc21  33%
4. CO[C@@H]1CN(C[C@H]2Cc3ccc(Br)cc3C2)CC[C@H]1n1c(C)nc2cc(C)ccc21  81%

Biological target: T3, Muscarinic acetylcholine receptor M2 (Homo sapiens) (UniProt P08172)
T3 sequence (whole entry): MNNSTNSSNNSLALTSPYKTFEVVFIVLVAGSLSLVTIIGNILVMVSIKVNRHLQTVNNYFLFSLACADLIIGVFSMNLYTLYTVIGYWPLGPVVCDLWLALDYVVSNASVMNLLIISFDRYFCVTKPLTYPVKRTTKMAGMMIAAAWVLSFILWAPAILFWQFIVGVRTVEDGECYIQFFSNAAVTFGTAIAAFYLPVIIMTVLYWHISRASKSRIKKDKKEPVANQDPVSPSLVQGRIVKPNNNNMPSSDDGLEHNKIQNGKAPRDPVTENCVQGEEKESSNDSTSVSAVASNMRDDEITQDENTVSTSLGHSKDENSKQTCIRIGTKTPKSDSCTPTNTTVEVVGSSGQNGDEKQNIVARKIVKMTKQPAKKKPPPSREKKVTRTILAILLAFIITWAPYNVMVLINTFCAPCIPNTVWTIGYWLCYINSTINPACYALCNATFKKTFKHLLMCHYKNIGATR
Test: Inhibition of muscarinic M2 receptor at 10 uM
Conditions: not given

In order of rising inhibition:
1. CO[C@@H]1CN(C[C@@H]2Cc3ccc(NC(=O)C(C)C)cc3C2)CC[C@H]1n1c(C)nc2cc(C)ccc21  3%
2. CO[C@@H]1CN(CC2Cc3ccccc3C2)CC[C@H]1n1c(C)nc2cc(C)ccc21  6%
3. CO[C@H]1CN(CCCc2cccc(NC(=O)C3CC3)c2)CC[C@@H]1n1c(C)nc2cc(C)ccc21  11%
4. CO[C@@H]1CN(C[C@H]2Cc3ccc(Br)cc3C2)CC[C@H]1n1c(C)nc2cc(C)ccc21  48%

Biological target: T4, 5-hydroxytryptamine receptor 2C (Homo sapiens) (UniProt P28335)
T4 sequence (whole entry): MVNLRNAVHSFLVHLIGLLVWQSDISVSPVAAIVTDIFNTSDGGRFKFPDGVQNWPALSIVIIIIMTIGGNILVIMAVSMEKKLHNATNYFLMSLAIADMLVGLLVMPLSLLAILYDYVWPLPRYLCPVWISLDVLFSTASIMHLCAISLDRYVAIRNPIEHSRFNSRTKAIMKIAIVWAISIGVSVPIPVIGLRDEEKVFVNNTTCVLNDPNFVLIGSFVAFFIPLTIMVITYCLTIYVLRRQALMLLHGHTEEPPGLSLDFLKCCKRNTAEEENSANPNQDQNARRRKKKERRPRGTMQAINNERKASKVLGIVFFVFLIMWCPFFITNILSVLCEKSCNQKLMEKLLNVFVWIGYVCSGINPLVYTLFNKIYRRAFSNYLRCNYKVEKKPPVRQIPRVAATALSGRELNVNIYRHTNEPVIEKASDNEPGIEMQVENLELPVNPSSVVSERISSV
Test: Inhibition of 5HT2C receptor at 10 uM
Conditions: not given

In order of rising inhibition:
1. CO[C@@H]1CN(CC2Cc3ccccc3C2)CC[C@H]1n1c(C)nc2cc(C)ccc21  -8%
2. CO[C@@H]1CN(C[C@@H]2Cc3ccc(NC(=O)C(C)C)cc3C2)CC[C@H]1n1c(C)nc2cc(C)ccc21  3%

Biological target: Somatostatin receptor type 5 (Homo sapiens) (UniProt P35346)
Sequence (P35346 whole entry): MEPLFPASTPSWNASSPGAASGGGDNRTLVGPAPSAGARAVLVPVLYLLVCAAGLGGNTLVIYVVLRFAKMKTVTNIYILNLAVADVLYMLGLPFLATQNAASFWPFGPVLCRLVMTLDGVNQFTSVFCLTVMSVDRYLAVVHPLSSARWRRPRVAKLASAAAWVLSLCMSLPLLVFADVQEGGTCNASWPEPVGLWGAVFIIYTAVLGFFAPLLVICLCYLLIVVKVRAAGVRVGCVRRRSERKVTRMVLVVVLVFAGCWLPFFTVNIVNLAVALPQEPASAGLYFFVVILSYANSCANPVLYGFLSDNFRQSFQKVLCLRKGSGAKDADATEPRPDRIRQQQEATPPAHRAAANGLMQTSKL
Test: Inhibition of SST5 receptor at 10 uM
Conditions: not given

In order of falling inhibition:
1. CO[C@@H]1CN(C[C@H]2Cc3ccc(Br)cc3C2)CC[C@H]1n1c(C)nc2cc(C)ccc21  54%
2. CO[C@H]1CN(CCCc2cccc(NC(=O)C3CC3)c2)CC[C@@H]1n1c(C)nc2cc(C)ccc21  16%
3. CO[C@@H]1CN(CC2Cc3ccccc3C2)CC[C@H]1n1c(C)nc2cc(C)ccc21  -2%

Biological target: Sodium-dependent noradrenaline transporter (Homo sapiens) (UniProt P23975)
Sequence (P23975 whole entry): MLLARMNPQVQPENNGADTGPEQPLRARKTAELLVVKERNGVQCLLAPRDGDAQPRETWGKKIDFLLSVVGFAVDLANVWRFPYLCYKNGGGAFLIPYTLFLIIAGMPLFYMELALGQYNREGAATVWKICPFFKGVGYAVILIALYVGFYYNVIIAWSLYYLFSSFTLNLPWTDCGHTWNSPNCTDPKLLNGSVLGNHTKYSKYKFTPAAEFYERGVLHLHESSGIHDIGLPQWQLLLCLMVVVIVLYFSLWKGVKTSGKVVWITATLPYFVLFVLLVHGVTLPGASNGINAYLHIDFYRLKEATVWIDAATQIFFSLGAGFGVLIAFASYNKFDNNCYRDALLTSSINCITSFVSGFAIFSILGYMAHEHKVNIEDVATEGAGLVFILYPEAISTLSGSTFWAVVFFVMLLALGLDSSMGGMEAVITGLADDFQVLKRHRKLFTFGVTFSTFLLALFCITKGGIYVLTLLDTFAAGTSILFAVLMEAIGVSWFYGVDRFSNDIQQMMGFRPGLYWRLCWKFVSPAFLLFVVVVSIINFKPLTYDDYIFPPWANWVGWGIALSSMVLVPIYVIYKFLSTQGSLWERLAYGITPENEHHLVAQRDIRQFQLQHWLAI
Test: Inhibition of NET at 10 uM
Conditions: not given

In order of falling inhibition:
1. CO[C@@H]1CN(C[C@H]2Cc3ccc(Br)cc3C2)CC[C@H]1n1c(C)nc2cc(C)ccc21  69%
2. CO[C@H]1CN(CCCc2cccc(NC(=O)C3CC3)c2)CC[C@@H]1n1c(C)nc2cc(C)ccc21  61%
3. CO[C@@H]1CN(CC2Cc3ccccc3C2)CC[C@H]1n1c(C)nc2cc(C)ccc21  24%
4. CO[C@@H]1CN(C[C@@H]2Cc3ccc(NC(=O)C(C)C)cc3C2)CC[C@H]1n1c(C)nc2cc(C)ccc21  1%

Biological target: Sodium-dependent serotonin transporter (Homo sapiens) (UniProt P31645)
Sequence (P31645 whole entry, looked up): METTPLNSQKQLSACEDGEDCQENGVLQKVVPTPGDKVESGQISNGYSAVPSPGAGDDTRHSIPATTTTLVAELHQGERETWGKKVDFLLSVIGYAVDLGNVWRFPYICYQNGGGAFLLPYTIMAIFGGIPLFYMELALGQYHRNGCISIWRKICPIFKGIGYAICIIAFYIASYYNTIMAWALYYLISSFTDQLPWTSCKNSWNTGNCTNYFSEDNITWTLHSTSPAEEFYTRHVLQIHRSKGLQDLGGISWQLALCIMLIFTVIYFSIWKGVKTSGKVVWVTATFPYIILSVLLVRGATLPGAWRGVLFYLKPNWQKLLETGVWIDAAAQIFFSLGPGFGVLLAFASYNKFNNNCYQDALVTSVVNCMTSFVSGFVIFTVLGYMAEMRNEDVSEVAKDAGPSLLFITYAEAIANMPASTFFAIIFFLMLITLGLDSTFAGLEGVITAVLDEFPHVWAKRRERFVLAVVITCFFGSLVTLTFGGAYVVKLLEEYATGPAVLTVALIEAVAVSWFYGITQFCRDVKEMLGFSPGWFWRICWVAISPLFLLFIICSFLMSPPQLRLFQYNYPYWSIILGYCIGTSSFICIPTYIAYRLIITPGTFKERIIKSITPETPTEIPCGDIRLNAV
Test: Inhibition of SERT at 10 uM
Conditions: not given

In order of falling inhibition:
1. CO[C@H]1CN(CCCc2cccc(NC(=O)C3CC3)c2)CC[C@@H]1n1c(C)nc2cc(C)ccc21  67%
2. CO[C@@H]1CN(C[C@H]2Cc3ccc(Br)cc3C2)CC[C@H]1n1c(C)nc2cc(C)ccc21  59%
3. CO[C@@H]1CN(C[C@@H]2Cc3ccc(NC(=O)C(C)C)cc3C2)CC[C@H]1n1c(C)nc2cc(C)ccc21  32%
4. CO[C@@H]1CN(CC2Cc3ccccc3C2)CC[C@H]1n1c(C)nc2cc(C)ccc21  14%

Biological target: T5, 5-hydroxytryptamine receptor 1A (Homo sapiens) (UniProt P08908)
T5 sequence (whole entry): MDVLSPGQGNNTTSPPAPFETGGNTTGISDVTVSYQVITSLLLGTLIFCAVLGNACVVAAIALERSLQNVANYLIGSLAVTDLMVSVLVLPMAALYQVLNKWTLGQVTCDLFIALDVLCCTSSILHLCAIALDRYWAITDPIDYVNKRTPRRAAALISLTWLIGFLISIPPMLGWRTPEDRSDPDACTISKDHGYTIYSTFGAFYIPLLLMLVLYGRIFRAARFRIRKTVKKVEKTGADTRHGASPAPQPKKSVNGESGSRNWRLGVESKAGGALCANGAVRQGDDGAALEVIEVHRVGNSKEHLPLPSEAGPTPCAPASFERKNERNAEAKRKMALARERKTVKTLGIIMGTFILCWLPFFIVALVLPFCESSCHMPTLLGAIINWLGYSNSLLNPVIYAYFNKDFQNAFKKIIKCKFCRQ
Test: Inhibition of 5HT1A receptor at 10 uM
Conditions: not given

In order of rising inhibition:
1. CO[C@@H]1CN(C[C@H]2Cc3ccc(Br)cc3C2)CC[C@H]1n1c(C)nc2cc(C)ccc21  31%
2. CO[C@@H]1CN(CC2Cc3ccccc3C2)CC[C@H]1n1c(C)nc2cc(C)ccc21  63%

System: not listed separately
Test: AUC in Sprague-Dawley rat plasma at 5 mg/kg, iv or 30 mg/kg, po
Type: ADME, organism-based
Conditions: not given

With CO[C@@H]1CN(C[C@@H]2Cc3ccc(NC(=O)C(C)C)cc3C2)CC[C@H]1n1c(C)nc2cc(C)ccc21 the AUC was 8520 ng·h/mL.

System: not listed separately
Test: Cmax in Sprague-Dawley rat at 5 mg/kg, iv or 30 mg/kg, po
Type: ADME, organism-based
Conditions: in vivo

With CO[C@@H]1CN(C[C@@H]2Cc3ccc(NC(=O)C(C)C)cc3C2)CC[C@H]1n1c(C)nc2cc(C)ccc21 the Cmax was 1280 ng/mL.

System: not listed separately
Test: Clearance in Sprague-Dawley rat at 5 mg/kg, iv or 30 mg/kg, po
Type: ADME, organism-based
Conditions: in vivo

CO[C@@H]1CN(C[C@@H]2Cc3ccc(NC(=O)C(C)C)cc3C2)CC[C@H]1n1c(C)nc2cc(C)ccc21 showed a clearance of 36.5 mL/min/kg.

System: not listed separately
Test: Half life in Sprague-Dawley rat at 5 mg/kg, iv or 30 mg/kg, po
Type: ADME, organism-based
Conditions: in vivo

CO[C@@H]1CN(C[C@@H]2Cc3ccc(NC(=O)C(C)C)cc3C2)CC[C@H]1n1c(C)nc2cc(C)ccc21 gave a half-life of 2.5 h.

System: not listed separately
Test: Volume of distribution at steady state in Sprague-Dawley rat at 5 mg/kg, iv or 30 mg/kg, po
Type: ADME, organism-based
Conditions: in vivo, read-out: Vdss

Compound CO[C@@H]1CN(C[C@@H]2Cc3ccc(NC(=O)C(C)C)cc3C2)CC[C@H]1n1c(C)nc2cc(C)ccc21 has a Vd of 14 L/kg.

System: not listed separately
Test: Oral bioavailability in Sprague-Dawley rat at 30 mg/kg
Type: ADME, organism-based
Conditions: in vivo

Compound CO[C@@H]1CN(C[C@@H]2Cc3ccc(NC(=O)C(C)C)cc3C2)CC[C@H]1n1c(C)nc2cc(C)ccc21 has a bioavailability of 61%.

System: not listed separately
Test: Ratio of drug level in brain to plasma in Sprague-Dawley rat after 5 mins
Type: ADME
Conditions: brain and plasma, read-out: BPR

Work on CO[C@@H]1CN(C[C@@H]2Cc3ccc(NC(=O)C(C)C)cc3C2)CC[C@H]1n1c(C)nc2cc(C)ccc21 yielded a Kp at 5 min of 0.06.
